Structures can show the parent of a compound that is named as a salt. Where two headings read alike, the source gives them in different places.
How the values were obtained:
plasmin = plasmin (Homo sapiens, UniProt P00747); assay: in vitro plasmin inhibition, substrate Boc-Val-Leu-Lys-7-amido-4-methylcoumalin; assay type: biochemical
Excerpt: (§1) The method disclosed in JP-A-2-101017 was slightly modified and used for the measurement of the function of typical compounds belonging to the compound (I) of the present invention (Compounds 39, 3, 2, 26, 31 and 10) in terms of their in vitro activities to inhibit trypsin, thrombin, plasmin, factor Xa and elastase.
(§2) Substrate used for the enzyme reaction were: benzoyl-Arg-7-amido-4-methylcoumalin for trypsin, Boc-Val-Pro-Arg-7-amido-4-methylcoumalin for thrombin, Boc-Val-Leu-Lys-7-amido-4-methylcoumalin for plasmin, Boc-Ile-Glu-Gly-Arg-7-amido-4-methylcoumalin for factor Xa and methoxysuccinyl-Ala-Ala-Pro-Val-7-amido-4-methylcoumalin for elastase. […] Each enzyme reaction was carried out in 0.2 M Tris-HCl buffer supplemented with 0.02 M CaCl₂ and 0.005% Triton X-100 at pH 8.0 for trypsin, thrombin, plasmin and factor Xa or at pH 7.2 for elastase. Each sample solution to be measured was mixed with each enzyme solution and the reaction mixture was incubated at 25°C for 60 minutes in the case of trypsin or for 20 minutes in other cases of enzymes. In this instance, a compound disclosed in JP-A-51-138642 was used as a Comparative Example 1, and a compound disclosed in JP-A-63-165357 as a Comparative Example 2.

factor Xa = factor Xa (Homo sapiens, UniProt P00742); assay: in vitro factor Xa inhibition, substrate Boc-Ile-Glu-Gly-Arg-7-amido-4-methylcoumalin; assay type: biochemical; details: 0.2 M Tris-HCl, 0.02 M CaCl2, 0.005% Triton X-100, pH 8.0, 25°C, 20 minutes
factor Xa, sequence (P00742 235-488 limits assumed): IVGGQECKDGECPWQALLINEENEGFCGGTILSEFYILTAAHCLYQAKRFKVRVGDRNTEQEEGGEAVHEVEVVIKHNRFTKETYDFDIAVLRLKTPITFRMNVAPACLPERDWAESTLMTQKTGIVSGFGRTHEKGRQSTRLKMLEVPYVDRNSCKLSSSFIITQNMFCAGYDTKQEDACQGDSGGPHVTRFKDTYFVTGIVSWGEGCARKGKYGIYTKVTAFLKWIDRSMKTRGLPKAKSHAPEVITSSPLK
factor Xa, sequence (P00742 41-179 partner limits assumed): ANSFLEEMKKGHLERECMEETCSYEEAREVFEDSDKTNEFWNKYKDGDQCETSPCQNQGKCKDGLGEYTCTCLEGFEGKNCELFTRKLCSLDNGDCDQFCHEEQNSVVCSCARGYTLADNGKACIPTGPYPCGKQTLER

male rats of Wistar line = assay: caerulein-induced acute pancreatitis edema, prevention by oral administration; assay type: in vivo; details: for Serum amylase / % Pancreas wt.: 15 minutes before caerulein (40 µg/kg i.p. twice); for Serum amylase: blood 6 hours after second caerulein; for % Pancreas wt.: pancreas wet weight to body weight, 6 hours after second caerulein
Procedure: […] Experiments were started at eight o'clock in the morning, with the animals in each group under satiation conditions. After measuring their body weights, caerulein pancreatitis was prepared by intraperitoneal administration of caerulein (mfd. by Kyowa Hakko K.K.) (40 μg/kg) twice at one hour interval. Six hours after the second administration, each rat was subjected to laparotomy to collect blood from the abdominal aorta and to excise the pancreas. […] Wet weight of the excised pancreas was measured and its ratio to the body weight was calculated. As a comparative example, the same process was repeated except that the inventive compound was replaced by the compound used in Pharmacological Trial 1 as Comparative Example 1, a compound which has been disclosed in JP-A-51-138642.

trypsin = molecular target: T1, trypsin (Bos taurus, UniProt P00760); assay: in vitro trypsin inhibition, fluorogenic substrate benzoyl-Arg-7-amido-4-methylcoumalin; assay type: biochemical; details: 0.2 M Tris-HCl, 0.02 M CaCl2, 0.005% Triton X-100, pH 8.0, 25°C, 60 minutes
T1 sequence (P00760 24-246): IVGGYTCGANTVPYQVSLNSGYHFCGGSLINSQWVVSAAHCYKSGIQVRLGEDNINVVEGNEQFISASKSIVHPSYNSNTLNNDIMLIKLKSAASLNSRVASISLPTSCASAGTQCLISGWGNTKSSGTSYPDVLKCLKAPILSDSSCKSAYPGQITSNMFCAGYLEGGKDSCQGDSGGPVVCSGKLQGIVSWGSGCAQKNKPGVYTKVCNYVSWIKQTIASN
Excerpt: as §1, §2

thrombin = thrombin (Homo sapiens, UniProt P00734); assay: in vitro thrombin inhibition, substrate Boc-Val-Pro-Arg-7-amido-4-methylcoumalin; assay type: biochemical; details: 0.2 M Tris-HCl, 0.02 M CaCl2, 0.005% Triton X-100, pH 8.0, 25°C, 20 minutes
[1] = 100 mg/kg oral, caerulein alone 817 ± 103
[2] = 100 mg/kg oral, caerulein alone 0.88 ± 0.07
[3] = 0.2 M Tris-HCl, 0.02 M CaCl2, 0.005% Triton X-100, pH 8.0, 25°C, 20 minutes

plasmin, sequence (P00747 581-810 limits assumed, species assumed): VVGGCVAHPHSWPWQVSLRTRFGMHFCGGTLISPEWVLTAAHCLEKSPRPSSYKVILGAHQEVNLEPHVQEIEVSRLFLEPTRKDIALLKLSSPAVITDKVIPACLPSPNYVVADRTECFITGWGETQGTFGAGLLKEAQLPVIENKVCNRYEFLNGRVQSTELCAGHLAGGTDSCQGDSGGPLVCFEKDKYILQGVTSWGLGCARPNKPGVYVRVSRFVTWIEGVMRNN
plasmin, sequence (P00747 97-580 partner limits assumed, species assumed): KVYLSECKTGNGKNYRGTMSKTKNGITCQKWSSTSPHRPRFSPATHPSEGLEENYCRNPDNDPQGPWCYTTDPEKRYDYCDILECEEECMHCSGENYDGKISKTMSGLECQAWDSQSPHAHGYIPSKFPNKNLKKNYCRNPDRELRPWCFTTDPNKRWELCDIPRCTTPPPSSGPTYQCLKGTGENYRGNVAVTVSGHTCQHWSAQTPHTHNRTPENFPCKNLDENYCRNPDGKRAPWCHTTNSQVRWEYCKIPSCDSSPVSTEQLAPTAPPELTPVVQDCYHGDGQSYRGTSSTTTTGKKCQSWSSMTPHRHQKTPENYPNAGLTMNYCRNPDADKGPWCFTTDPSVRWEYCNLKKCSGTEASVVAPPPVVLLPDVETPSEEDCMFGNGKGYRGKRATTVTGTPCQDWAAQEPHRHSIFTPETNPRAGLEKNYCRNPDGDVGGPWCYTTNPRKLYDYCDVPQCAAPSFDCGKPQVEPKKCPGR

Row | IC50 (factor Xa) | IC50 (trypsin) | IC50 (plasmin; [3]) | IC50 (thrombin) | SMILES | IC50 (plasmin) | Serum amylase (male rats of Wistar line; [1]) | % Pancreas wt. (male rats of Wistar line; [2]) | histological observation of the pancreas (pancreatitis-specific signs) (male rats of Wistar line; rat group of 100 mg oral administration, caerulein pancreatitis) | Serum amylase (male rats of Wistar line; 10 mg/kg oral, caerulein alone 817 ± 103, no treatment 134 ± 11) | % Pancreas wt. (male rats of Wistar line; 10 mg/kg oral, caerulein alone 0.88 ± 0.07, no treatment 0.38 ± 0.06) | Serum amylase (male rats of Wistar line; 50 mg/kg oral, caerulein alone 817 ± 103) | % Pancreas wt. (male rats of Wistar line; 50 mg/kg oral, caerulein alone 0.88 ± 0.07) | histological observation of the pancreas (male rats of Wistar line; rat groups of 10, 50 and 100 mg oral doses, caerulein pancreatitis)
1 | 440 nM | 0.84 nM | 18 nM | 39 nM | N=C(N)Nc1ccc(C(=O)Oc2ccc(OC(F)(F)F)cc2)cc1 [Compound 3, 4-trifluoromethoxyphenyl 4-guanidinobenzoate] | – | – | – | – | – | – | – | – | –
2 | 2500 nM | 0.52 nM | 63 nM | 140 nM | CON=C(C)c1cccc(OC(=O)c2ccc(NC(=N)N)cc2)c1 [Compound 10, 3-(1-methoxyiminoethyl)phenyl 4-guanidinobenzoate] | – | – | – | – | – | – | – | – | –
3 | 340 nM | 0.25 nM | 15 nM | 69 nM | CC1(C(=O)Oc2cc(Cl)cc(OC(=O)c3ccc(NC(=N)N)cc3)c2)CC1 [Compound 26, 3-chloro-5-(1-methylcyclopropylcarbonyloxy)phenyl 4-guanidinobenzoate methanesulfonic acid salt] | – | – | – | – | – | – | – | – | –
4 | 3600 nM | 0.47 nM | 10 nM | 580 nM | N=C(N)Nc1ccc(C(=O)Oc2cc(Cl)cc(OC(=O)C3CCCCC3)c2)cc1 [Compound 31, 3-chloro-5-cyclohexylcarbonyloxyphenyl 4-guanidinobenzoate] | – | – | – | – | – | – | – | – | –
5 | 160 nM | 0.36 nM | 12 nM | 21 nM | CS(=O)(=O)O.N=C(N)Nc1ccc(C(=O)Oc2cc(Cl)cc(OS(=O)(=O)C=Cc3ccccc3)c2)cc1 [Compound 39, 3-chloro-5-(β-styrenesulfonyloxy)phenyl 4-guanidinobenzoate methanesulfonic acid salt] | – | 99 ± 17 IU/ml | 0.39 ± 0.06% | – | 556 ± 31 IU/ml | 0.99 ± 0.16% | 362 ± 15 IU/ml | 0.66 ± 0.04% | no evident appearance of vacuoles inside the acinic cells, and the appearance of interstitial edema was almost negligible

Continued, molecule first:

Row | SMILES | IC50 (factor Xa) | IC50 (trypsin) | IC50 (plasmin; [3]) | IC50 (thrombin) | IC50 (plasmin) | Serum amylase (male rats of Wistar line; [1]) | % Pancreas wt. (male rats of Wistar line; [2]) | histological observation of the pancreas (pancreatitis-specific signs) (male rats of Wistar line; rat group of 100 mg oral administration, caerulein pancreatitis) | Serum amylase (male rats of Wistar line; 10 mg/kg oral, caerulein alone 817 ± 103, no treatment 134 ± 11) | % Pancreas wt. (male rats of Wistar line; 10 mg/kg oral, caerulein alone 0.88 ± 0.07, no treatment 0.38 ± 0.06) | Serum amylase (male rats of Wistar line; 50 mg/kg oral, caerulein alone 817 ± 103) | % Pancreas wt. (male rats of Wistar line; 50 mg/kg oral, caerulein alone 0.88 ± 0.07) | histological observation of the pancreas (male rats of Wistar line; rat groups of 10, 50 and 100 mg oral doses, caerulein pancreatitis)
6 | CN(C)C(=O)COC(=O)Cc1ccc(OC(=O)c2ccc(NC(=N)N)cc2)cc1 [Comp. Ex. 1, reference compound] | 56000 nM | 25 nM | – | – | 120 nM | 216 ± 7 IU/ml | 0.47 ± 0.09% | decrease in the pancreatitis-specific signs, but the reducing effects were inferior to those of Compound 39 | – | – | – | – | –
7 | N=C(N)Nc1ccc(C(=O)Oc2cc(Cl)cc(Cl)c2)cc1 [Comp. Ex. 2, reference compound] | 8500 nM | 9.5 nM | 90 nM | 880 nM | – | – | – | – | – | – | – | – | –
8 | N=C(N)Nc1ccc(C(=O)Oc2cccc(OC(F)(F)F)c2)cc1 [Compound 2, 3-trifluoromethoxyphenyl 4-guanidinobenzoate] | 430 nM | 0.17 nM | 43 nM | 77 nM | – | – | – | – | – | – | – | – | –

Reference: patent EP0486702A1, “PHENYL 4-GUANIDINOBENZOATE DERIVATIVE, PROCESS FOR PRODUCING THE SAME, AND PROTEASE INHIBITOR CONTAINING THE SAME” (Asahi Kasei Kogyo Kabushiki Kaisha, priority 1990, dated 1991)
